The source of these data is patent publication US12391648B2, “Pyridyloxy thioester derivative and preparation method therefor, herbicidal composition, and application” (Qingdao Kingagroot Chemical Compound Co., Ltd., priority 2018, dated 2025).

SMILES strings stand for the structures.

For one data set, the system named is Leptochloa chinensis. The data set can be described thus: Post-emergence test experiment (Table 3, 1000 g/ha). The class given is in vivo. Conditions: post-emergence spray, after 3 weeks, fresh weight inhibition. The gist of the method:
(§1)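 Weed seeds sown in soil-filled pots in greenhouse, sprayed at 2-3 leaf stage (2 weeks after sowing) with compound in acetone/tween-80 plus methyl oleate emulsible concentrate (1.5 L/ha) diluted in water. Fresh-weight growth inhibition scored after 3 weeks on 0-5 scale (5: >85%, 0: <5%).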

The next data set deals with Abutilon theophrasti. The description is as above. The class given is in vivo. The conditions noted are these: post-emergence spray, after 3 weeks, fresh weight inhibition. The method, boiled down:
as §1

A further data set deals with Digitaria sanguinalis. Described as above. It counts as in vivo. The conditions noted are these: post-emergence spray, after 3 weeks, fresh weight inhibition. The gist of the method: as §1
Data set [1] concerns Monochoria vaginalis. The data set is described as above. The class given is in vivo. Conditions: post-emergence spray, after 3 weeks, fresh weight inhibition. The method, boiled down:
as §1

The next data set concerns Setaria viridis. Described as above. The class given is in vivo. Conditions: post-emergence spray, after 3 weeks, fresh weight inhibition. The method, boiled down: as §1
For the next data set, the system named is Galium spurium. The description is as above. The class given is in vivo. The conditions noted are these: post-emergence spray, after 3 weeks, fresh weight inhibition. The gist of the method:
as §1

The next data set concerns Japonica rice. As to the kind of experiment: Post-emergence test experiment (Table 4), crop safety. The class given is in vivo. The conditions noted are these: after 3 weeks. An excerpt:
(§2) The activity level standard of harmful plants destruction (i. e. growth inhibition rate) is as follows: • Level 5: the growth inhibition rate is greater than 85%; • Level 4: the growth inhibition rate is equal to or greater than 60% and less than 85%; • Level 3: the growth inhibition rate is equal to or greater than 40% and less than 60%; • Level 2: the growth inhibition rate is equal to or greater than 20% and less than 40%; • Level 1: the growth inhibition rate is equal to or greater than 5% and less than 20%; • Level 0: the growth inhibition rate is less than 5%;
(§3) The above described growth inhibition rate is fresh weight inhibition rate.
(§4) Post-emergence test experiment: Monocotyledonous and dicotyledonous weed seeds and main crop seeds (i. e. wheat, corn, rice, soybean, cotton, oilseed, millet and sorghum.) were put into a plastic pot loaded with soil. Then covered with 0.5-2 cm soil, the seeds were allowed to grow in good greenhouse environment. The test plants were treated at 2-3 leaf stage 2 weeks after sowing. The test compounds of the invention were dissolved with acetone respectively, then added with tween-80, and using 1.5 liters per hectare of an emulsible concentrate of methyl oleate as a synergist, and diluted by certain amount of water to certain concentration. The solution was sprayed to the plants with a sprayer. Then the plants were cultured for 3 weeks in the greenhouse, and the experiment result of weed controlling effect after 3 weeks was listed in tables 3-4.
(§5) […] Echinochloa crusgalli and Cyperus iria were collected from Ningxia Hui Autonomous Region of China, which had evolved resistance to ALS inhibiting herbicides. • Control compound A:

The test system of the next data set is Indica rice. The data set is described as above. It counts as in vivo. The conditions noted are these: after 3 weeks.
From the text: as §2, §3, §4, §5

The test system of data set [2] is Monochoria vaginalis. As to the kind of experiment: Weed control effect evaluation in rice field. The class given is in vivo. The conditions noted are these: 1000 g/ha, paddy water application at 0.5 leaf stage, 14 days after treatment, weeds resistant to pyrazosulfuron-ethyl and penoxsulam.
From the text: as §2
(§6) Transplanted rice safety evaluation and weed control effect evaluation in rice field:
Rice field soil was loaded into a 1/1,000,000 ha pot. The seeds of Monochoria vaginalis were sowed and gently covered with soil, then left to stand still in greenhouse in the state of 0.5-1 cm of water storage. It was kept at 3-4 cm of water storage thereafter. The weeds were treated by dripping the WP or SC water diluents prepared according to the common preparation method of the compounds of the present invention with pipette homogeneously to achieve specified effective amount when Monochoria vaginalis reached 0. 5 leaf stage.
(§7) The fertility condition of Monochoria vaginalis 14 days and rice 21 days after the treatment of the compound of the invention with the naked eye.
Note: The seeds of Monochoria vaginalis were collected from Heilongjing Province of China.

Another data set concerns rice (japonica rice). As to the kind of experiment: Transplanted rice safety evaluation. The class given is in vivo. The conditions noted are these: 1000 g/ha, transplanted 3-leaf stage japonica rice, treated 5 days after transplantation, 21 days after treatment.
From the text: as §2, §6
In addition, the rice field soil that loaded into the 1/1,000,000 ha pot was leveled to keep water storage at 3-4 cm depth. The 3-leaf stage rice (japonica rice) was transplanted at 3 cm of transplanting depth the next day. The compound of the present invention was treated by the same way after 5 days of transplantation.
as §7

For data set [3], the system named is ALS resistant Echinochloa crusgalli. The data set can be described thus: Post-emergence test experiment (Table 4), weed control. Conditions: after 3 weeks. It counts as in vivo.
From the text: as §2, §3, §4, §5

Data set [4] relates to ALS resistant Cyperus iria. The data set is described as above. The class given is in vivo. The conditions noted are these: after 3 weeks.
From the text: as §2, §3, §4, §5

A further data set relates to rice. Conditions: known compound; cited from earlier work.
[5] abbreviates: 600 g/ha active ingredient, plus water 450 kg/ha.

As for `COCCCSC(=O)C(C)Oc1nc(F)c(Cl)c(N)c1Cl` (stereo not drawn) [Compound 88], the “Activity level (growth inhibition rate) Leptochloa chinensis” value in the data set with Leptochloa chinensis is recorded as 5 (Level 5: the growth inhibition rate is greater than 85%). Further, the “Activity level (growth inhibition rate) Abutilon theophrasti” value with Abutilon theophrasti is 5 (Level 5: the growth inhibition rate is greater than 85%). Also, the “Activity level (growth inhibition rate) Digitaria sanguinalis” value in the data set on Digitaria sanguinalis is given as 5 (Level 5: the growth inhibition rate is greater than 85%). Moreover, in the data set on Monochoria vaginalis [1], the “Activity level (growth inhibition rate) Monochoria Vaginalis” value is reported as 5 (Level 5: the growth inhibition rate is greater than 85%). Besides, the “Activity level (growth inhibition rate) Setaria viridis” value in the data set with Setaria viridis was 5 (Level 5: the growth inhibition rate is greater than 85%). Besides, the “Activity level (growth inhibition rate) Galium spurium” value with Galium spurium is on record as 5 (Level 5: the growth inhibition rate is greater than 85%). In the data set with Japonica rice (setting [5]), the “Japonica rice, activity level (growth inhibition rate)” value is given as 0 (Level 0: the growth inhibition rate is less than 5%). Further, the “Indica rice, activity level (growth inhibition rate)” value in the data set with Indica rice (setting [5]) is 0 (Level 0: the growth inhibition rate is less than 5%). Besides, the “Monochoria Vaginalis, activity standard level 0-5” value in the data set on Monochoria vaginalis [2] is on record as 5 (Level 5: the growth inhibition rate is greater than 85%). Besides, in the data set on rice (japonica rice), the “Rice, activity standard level 0-5 (safety)” value (shortened to “Rice … (safety)”) is recorded as 0 (Level 0: the growth inhibition rate is less than 5%). For the same compound, the “ALS resistant Echinochloa crusgalli, activity level (growth inhibition rate)” value in data set [3] (setting [5]) was 5 (Level 5: the growth inhibition rate is greater than 85%). In data set [4] (setting [5]), the “ALS resistant Cyperus iria, activity level (growth inhibition rate)” value was 5 (Level 5: the growth inhibition rate is greater than 85%).

Consider `CC(C)=NOCCSC(=O)C(C)Oc1nc(F)c(Cl)c(N)c1Cl` (stereo not drawn) [Compound 97], for which, in the data set on Leptochloa chinensis, the “Activity level (growth inhibition rate) Leptochloa chinensis” value was 5 (Level 5: the growth inhibition rate is greater than 85%). In the data set on Abutilon theophrasti, the “Activity level (growth inhibition rate) Abutilon theophrasti” value is on record as 5 (Level 5: the growth inhibition rate is greater than 85%). Besides, the “Activity level (growth inhibition rate) Digitaria sanguinalis” value with Digitaria sanguinalis was 5 (Level 5: the growth inhibition rate is greater than 85%). Further, the “Activity level (growth inhibition rate) Monochoria Vaginalis” value with Monochoria vaginalis [1] is given as 5 (Level 5: the growth inhibition rate is greater than 85%). In addition, in the data set on Setaria viridis, the “Activity level (growth inhibition rate) Setaria viridis” value is 5 (Level 5: the growth inhibition rate is greater than 85%). Also, in the data set on Galium spurium, the “Activity level (growth inhibition rate) Galium spurium” value is reported as 5 (Level 5: the growth inhibition rate is greater than 85%). In the data set with Japonica rice (setting [5]), the “Japonica rice, activity level (growth inhibition rate)” value was 0 (Level 0: the growth inhibition rate is less than 5%). Further, the “Indica rice, activity level (growth inhibition rate)” value in the data set on Indica rice (setting [5]) is given as 0 (Level 0: the growth inhibition rate is less than 5%). Also, in the data set with Monochoria vaginalis [2], the “Monochoria Vaginalis, activity standard level 0-5” value is 5 (Level 5: the growth inhibition rate is greater than 85%). Also, in the data set on rice (japonica rice), the “Rice … (safety)” value was 0 (Level 0: the growth inhibition rate is less than 5%). For the same compound, in data set [3] (setting [5]), the “ALS resistant Echinochloa crusgalli, activity level (growth inhibition rate)” value is listed as 5 (Level 5: the growth inhibition rate is greater than 85%). The “ALS resistant Cyperus iria, activity level (growth inhibition rate)” value in data set [4] (setting [5]) was 5 (Level 5: the growth inhibition rate is greater than 85%).

Regarding `COC(=O)OC(C)SC(=O)C(C)Oc1nc(F)c(Cl)c(N)c1Cl` (stereo not drawn) [Compound 98], the “Activity level (growth inhibition rate) Leptochloa chinensis” value with Leptochloa chinensis is given as 5 (Level 5: the growth inhibition rate is greater than 85%). Moreover, the “Activity level (growth inhibition rate) Abutilon theophrasti” value in the data set with Abutilon theophrasti is recorded as 5 (Level 5: the growth inhibition rate is greater than 85%). For the same compound, the “Activity level (growth inhibition rate) Digitaria sanguinalis” value in the data set with Digitaria sanguinalis was 5 (Level 5: the growth inhibition rate is greater than 85%). In the data set with Monochoria vaginalis [1], the “Activity level (growth inhibition rate) Monochoria Vaginalis” value is 5 (Level 5: the growth inhibition rate is greater than 85%). In addition, the “Activity level (growth inhibition rate) Setaria viridis” value in the data set on Setaria viridis is recorded as 5 (Level 5: the growth inhibition rate is greater than 85%). The “Activity level (growth inhibition rate) Galium spurium” value in the data set on Galium spurium is 5 (Level 5: the growth inhibition rate is greater than 85%). In the data set with Japonica rice (setting [5]), the “Japonica rice, activity level (growth inhibition rate)” value is given as 0 (Level 0: the growth inhibition rate is less than 5%). In addition, in the data set on Indica rice (setting [5]), the “Indica rice, activity level (growth inhibition rate)” value was 0 (Level 0: the growth inhibition rate is less than 5%). For the same compound, the “Monochoria Vaginalis, activity standard level 0-5” value in the data set with Monochoria vaginalis [2] is on record as 5 (Level 5: the growth inhibition rate is greater than 85%). Further, the “Rice … (safety)” value with rice (japonica rice) is reported as 0 (Level 0: the growth inhibition rate is less than 5%). For the same compound, the “ALS resistant Echinochloa crusgalli, activity level (growth inhibition rate)” value in data set [3] (setting [5]) is given as 5 (Level 5: the growth inhibition rate is greater than 85%). In addition, the “ALS resistant Cyperus iria, activity level (growth inhibition rate)” value in [4] (setting [5]) is reported as 5 (Level 5: the growth inhibition rate is greater than 85%).

As to `CSC(=O)C(C)Oc1nc(F)c(Cl)c(NCc2ccco2)c1Cl` (stereo not drawn) [Compound 130], the “Activity level (growth inhibition rate) Leptochloa chinensis” value with Leptochloa chinensis is given as 5 (Level 5: the growth inhibition rate is greater than 85%). Besides, the “Activity level (growth inhibition rate) Abutilon theophrasti” value with Abutilon theophrasti was 5 (Level 5: the growth inhibition rate is greater than 85%). Besides, the “Activity level (growth inhibition rate) Digitaria sanguinalis” value in the data set on Digitaria sanguinalis was 5 (Level 5: the growth inhibition rate is greater than 85%). The “Activity level (growth inhibition rate) Monochoria Vaginalis” value in the data set on Monochoria vaginalis [1] was 5 (Level 5: the growth inhibition rate is greater than 85%). The “Activity level (growth inhibition rate) Setaria viridis” value in the data set on Setaria viridis was 5 (Level 5: the growth inhibition rate is greater than 85%). Besides, the “Activity level (growth inhibition rate) Galium spurium” value in the data set with Galium spurium is 5 (Level 5: the growth inhibition rate is greater than 85%). Also, the “Japonica rice, activity level (growth inhibition rate)” value in the data set on Japonica rice (setting [5]) is reported as 0 (Level 0: the growth inhibition rate is less than 5%). Further, the “Indica rice, activity level (growth inhibition rate)” value in the data set on Indica rice (setting [5]) is given as 0 (Level 0: the growth inhibition rate is less than 5%). For the same compound, the “Monochoria Vaginalis, activity standard level 0-5” value with Monochoria vaginalis [2] is 5 (Level 5: the growth inhibition rate is greater than 85%). In addition, the “Rice … (safety)” value in the data set with rice (japonica rice) is listed as 0 (Level 0: the growth inhibition rate is less than 5%). Besides, in [3] (setting [5]), the “ALS resistant Echinochloa crusgalli, activity level (growth inhibition rate)” value is 5 (Level 5: the growth inhibition rate is greater than 85%). For the same compound, the “ALS resistant Cyperus iria, activity level (growth inhibition rate)” value in [4] (setting [5]) is reported as 5 (Level 5: the growth inhibition rate is greater than 85%).

Consider `CC(Oc1nc(F)c(Cl)c(N)c1Cl)C(=O)O` (stereo not drawn) [Control compound A, reference compound], for which the “Japonica rice, activity level (growth inhibition rate)” value in the data set with Japonica rice (300 g/ha) is 3 (Level 3: the growth inhibition rate is equal to or greater than 40% and less than 60%); in the data set with Japonica rice (setting [5]), 3 (Level 3: the growth inhibition rate is equal to or greater than 40% and less than 60%). Moreover, the “Indica rice, activity level (growth inhibition rate)” value is 2 (Level 2: the growth inhibition rate is equal to or greater than 20% and less than 40%) in the data set with Indica rice (300 g/ha); 3 (Level 3: the growth inhibition rate is equal to or greater than 40% and less than 60%) in the data set on Indica rice (setting [5]). In addition, the “ALS resistant Echinochloa crusgalli, activity level (growth inhibition rate)” value in data set [3] (300 g/ha) is 4 (Level 4: the growth inhibition rate is equal to or greater than 60% and less than 85%); in data set [3] (setting [5]) it was 5 (Level 5: the growth inhibition rate is greater than 85%). Further, the “ALS resistant Cyperus iria, activity level (growth inhibition rate)” value in data set [4] (300 g/ha) was 4 (Level 4: the growth inhibition rate is equal to or greater than 60% and less than 85%); in data set [4] (setting [5]), 5 (Level 5: the growth inhibition rate is greater than 85%). Also, the “safety and selectivity in rice” value in the data set with rice is “poor safety and low selectivity in rice”.
